Laboratory results published in patent publication US12472166B2, “Inhibition of mycobacterial type VII secretion” (priority 2019, dated 2025).

Key:
M. tuberculosis = assay: microbe, parasite or virus in culture; assay type: cell-based
[1] = tested on: ESX-5 dependent secretion; assay type: cell-based
M. marinum = assay type: cell-based
[2] = tested on: PE_PGRS and EsxN (ESX-5 dependent secretion); assay type: cell-based
[3] = tested on: EsxA (ESX-1 dependent secretion); assay type: cell-based
M. tuberculosis H37Rv WT = assay: THP-1 macrophage infection study, CFU counting; assay type: cell-based, Mycobacterium tuberculosis; settings: THP-1 macrophages, MOI 1, day 5
M. avium = assay: Cell viability assay (REMA), susceptibility of bacterial cultures; assay type: cell-based; settings: tested up to 80 μM
M. interjectum = assay: as above; assay type: cell-based; settings: tested up to 80 μM
M. kansasii = assay: as above; assay type: cell-based; settings: tested up to 80 μM
M. bovis (BCG) = assay type: cell-based
[4] = tested on: fast-growing mycobacteria; assay: Cell viability assay (REMA), susceptibility of bacterial cultures; assay type: cell-based; settings: up to 80 μM
Escherichia coli = assay: as above; assay type: cell-based; settings: highest tested amount (80 μM)
Bacillus subtilis = assay: as above; assay type: cell-based; settings: highest tested amount (80 μM)
[5] = tested on: M. marinum overexpressing ethA; assay type: cell-based
[6] = tested on: M. smegmatis overexpressing ethA; assay type: cell-based

SMILES: COc1ccc(-c2nsc(SCC(=O)NC3CCCC3)n2)cc1 [Compound I-12]
- IC50 (M. tuberculosis; Mycobacterium tuberculosis, 168 h, read-out: IC50 (μM) M.tb/REMA): 0.535 µM
- IC90 (M. tuberculosis; Mycobacterium tuberculosis, read-out: IC90 (μM) M.tb/REMA): 1.25 µM
- susceptibility (REMA) (M. tuberculosis; tested up to 80 μM): susceptible
- ESX-5 activity, % of the DMSO treated control [1]: 27%
- increase of MIC towards M. marinum when mspA was over-produced (M. marinum): 2 fold
- more compound required to significantly reduce viability when mspA was over-produced (M. marinum): 4 fold
- reduction in bacterial viability (REMA) (M. marinum): 77%
- susceptibility (REMA) (M. marinum): susceptible
- concentration at which reduction of ESX-5 substrates EsxN and PE_PGRS proteins was observed [2]: 10 µM
- secretion of EsxA [3]: reduced secretion of EsxA
- concentration required to reduce the bacterial load below the initial amount on day 0 (M. tuberculosis H37Rv WT): 10 µM
- concentration with significant decrease of bacterial load as compared to the DMSO control (M. tuberculosis H37Rv WT): 3 µM
- susceptibility (REMA) (M. avium): resistant
- susceptibility (REMA) (M. interjectum): resistant
- susceptibility (REMA) (M. kansasii): susceptible
- susceptibility (REMA) (M. bovis (BCG)): susceptible
- susceptibility (REMA) [4]: resistant
- susceptibility (REMA) (Escherichia coli): resistant
- susceptibility (REMA) (Bacillus subtilis): resistant
- increased susceptibility as compared to the parent WT strain [5]: at least 4 fold
- susceptibility on overexpression of ethA [6]: did not render this strain susceptible
